Results on one compound are retold here after patent US20230138393A1, “LINKING AMINO ACID SEQUENCES, MANUFACTURING METHOD THEREOF, AND USE THEREOF” (priority 2020, published 2023).

In data set [1] the test system is DLD-1 cells. The settings on record: literature; cited from earlier work.
Data set [2] has as its system DLD-1 cells. The data set is described as follows: Cell penetration assay of FITC-labelled Axin analogues (confocal imaging). It is filed as cell-based. The conditions noted are these: 10 μM.
Protocol: Images were analyzed with NIH ImageJ software.
Cell Penetration Assay: DLD-1 cells were seeded on 35 mm optical dishes at 3e5 per well and were incubated overnight at 37° C./5% CO2. […] Cells were imaged in buffer mimicking the physiological conditions in the cytoplasm (20 mM HEPES, 110 mM KOAc, 5 mM NaOAc, 2 mM MgOAc, 1 mM EGTA, pH 7.3).

Take `CC[C@H](C)[C@@H]1NC(=O)[C@@](C)(NC(=O)[C@H](CCC(N)=O)NC(=O)[C@@H]2CCCN2C(=O)[C@H](Cc2c[nH]c3ccccc23)NC(=O)[C@H](CCCNC(=N)N)NC(=O)COCCOCCNC(=S)Nc2ccc3c(c2)C(=O)OC32c3ccc(O)cc3Oc3cc(O)ccc32)CCCC=CCCC[C@@](C)(C(=O)N[C@@H](Cc2c[nH]cn2)C(=O)N[C@H](C(=O)N[C@@H](CCCNC(=N)N)C(=O)N[C@@H](CCCNC(=N)N)C(=O)N[C@H](C(=O)N[C@@H](Cc2c[nH]c3ccccc23)C(=O)N[C@@H](CCCNC(=N)N)C(N)=O)C(C)C)C(C)C)NC(=O)[C@H](CC(=O)O)NC(=O)[C@H](CC(C)C)NC1=O` [Peptide 51, reference compound]: the “reported cell permeability to DLD-1 cells” value in data set [1] was “limited cell permeability”. The “cellular uptake by confocal fluorescence microscopy (in words)” value in data set [2] is “much weaker fluorescence”.
